Each block holds one molecule with its values, some of them ahead of it.
Columns and labels:
[1] = target: T1, Bifunctional dihydrofolate reductase-thymidylate synthase (Toxoplasma gondii, UniProt Q07422)
T1 sequence (Q07422 whole entry): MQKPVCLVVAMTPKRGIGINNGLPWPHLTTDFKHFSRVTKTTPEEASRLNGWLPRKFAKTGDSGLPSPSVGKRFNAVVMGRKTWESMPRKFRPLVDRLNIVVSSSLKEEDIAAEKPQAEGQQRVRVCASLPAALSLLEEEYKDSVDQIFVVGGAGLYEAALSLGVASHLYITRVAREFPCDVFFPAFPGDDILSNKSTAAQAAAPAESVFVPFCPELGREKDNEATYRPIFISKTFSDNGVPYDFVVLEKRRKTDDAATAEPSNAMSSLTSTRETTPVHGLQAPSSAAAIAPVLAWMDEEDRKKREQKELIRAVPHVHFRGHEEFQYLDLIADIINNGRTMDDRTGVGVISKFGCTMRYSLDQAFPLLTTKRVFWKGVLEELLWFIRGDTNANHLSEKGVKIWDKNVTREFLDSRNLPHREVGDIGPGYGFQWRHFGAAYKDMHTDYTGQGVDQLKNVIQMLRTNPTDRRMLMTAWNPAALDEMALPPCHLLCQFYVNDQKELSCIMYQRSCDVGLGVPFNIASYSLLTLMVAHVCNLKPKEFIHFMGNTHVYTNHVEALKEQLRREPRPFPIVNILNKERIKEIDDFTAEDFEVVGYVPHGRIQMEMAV
Description: Inhibitory activity against dihydrofolate reductase (DHFR) from Toxoplasma gondii

Dihydrofolate reductase [2] = target: T2, Dihydrofolate reductase (Rattus norvegicus, UniProt Q920D2)
T2 sequence (Q920D2 whole entry): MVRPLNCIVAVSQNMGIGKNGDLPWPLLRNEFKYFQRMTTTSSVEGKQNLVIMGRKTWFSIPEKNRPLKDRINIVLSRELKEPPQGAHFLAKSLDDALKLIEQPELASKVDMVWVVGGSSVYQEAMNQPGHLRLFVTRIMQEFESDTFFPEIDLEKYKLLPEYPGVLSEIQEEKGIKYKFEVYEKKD
Description: Inhibitory activity against dihydrofolate reductase (DHFR) from rat liver

Dihydrofolate reductase [3] = target: T3, Dihydrofolate reductase (Pneumocystis carinii, UniProt P16184)
T3 sequence (P16184 whole entry): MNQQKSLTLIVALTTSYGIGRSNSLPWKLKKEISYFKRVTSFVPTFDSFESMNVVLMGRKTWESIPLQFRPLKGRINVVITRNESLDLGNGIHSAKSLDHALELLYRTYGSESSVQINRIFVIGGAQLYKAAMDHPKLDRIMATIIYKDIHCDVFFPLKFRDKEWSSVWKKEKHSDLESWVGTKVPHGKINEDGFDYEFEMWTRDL
Description: Inhibitory activity against dihydrofolate reductase (DHFR) from Pneumocystis carinii

SF-295 [4] = assay: inhibition of the growth of CNS cancer(SF-295) cell line; format: functional; settings: Homo sapiens
SR = assay: inhibition of the growth of leukemia(SR) cell line; format: functional; settings: Homo sapiens
SF-539 = assay: inhibition of the growth of CNS cancer(SF-539) cell line; format: functional; settings: Homo sapiens
MOLT-4 = assay: inhibition of the growth of leukemia (MOLT-4) cell line; format: functional; settings: Homo sapiens
SF-268 = assay: inhibition of the growth of CNS cancer(SF-268) cell line; format: functional; settings: Homo sapiens
M14 = assay: inhibition of the growth of melanoma cancer (M14) cell line; format: functional; settings: Homo sapiens
NCI/ADR-RES [5] = assay: inhibition of the growth of breast cancer (MCF7/ADR-RES) cell line; format: functional; settings: Homo sapiens
UO-31 [6] = assay: Inhibition of the growth of renal cancer(UO-31) cell line at 0.01 uM; format: functional; settings: Homo sapiens
NCI-H460 [7] = assay: inhibition of the growth of non-small-cell lung cancer (NCI-H460) cell line; format: functional; settings: Homo sapiens
OVCAR-8 [8] = assay: inhibition of the growth of ovarian cancer(OVCAR-8) cell line; format: functional; settings: Homo sapiens
MDA-MB-435 [9] = assay: inhibition of the growth of breast cancer (MDA-MB-435) cell line; format: functional; settings: Homo sapiens
RPMI-8226 [10] = assay: inhibition of the growth of leukemia (RPMI-8226) cell line; format: functional; settings: Homo sapiens
786-0 = assay: inhibition of the growth of renal cancer(786-0) cell line; format: functional; settings: Homo sapiens
NCI-H522 = assay: inhibition of the growth of non-small-cell lung cancer (NCI-H522) cell line; format: functional; settings: Homo sapiens
MCF7 = assay: inhibition of the growth of breast cancer (MCF-7) cell line; format: functional; settings: Homo sapiens
HCT-116 [11] = assay: inhibition of the growth of colon cancer(HCT116) cell line; format: functional; settings: Homo sapiens
NCI-H23 = assay: inhibition of the growth of non-small-cell lung cancer (NCI-H23) cell line; format: functional; settings: Homo sapiens
SNB-19 = assay: inhibition of the growth of CNS cancer(SNB-19) cell line; format: functional; settings: Homo sapiens
KM12 = assay: inhibition of the growth of colon cancer(KM-12) cell line; format: functional; settings: Homo sapiens
A549 [12] = assay: inhibition of the growth of non-small-cell lung cancer (A549/ATCC) cell line; format: functional; settings: Homo sapiens
MDA-N [13] = assay: inhibition of the growth of breast cancer(MDA-N) cell line; format: functional; settings: Homo sapiens
SK-MEL-5 [14] = assay: inhibition of the growth of melanoma cancer (SK-MEL-5) cell line; format: functional; settings: Homo sapiens
DU-145 = assay: inhibition of the growth of prostate cancer(DU-145) cell line; format: functional; settings: Homo sapiens
HCT-15 [15] = assay: inhibition of the growth of colon cancer(HCT-15) cell line; format: functional; settings: Homo sapiens
CAKI-1 = assay: inhibition of the growth of renal cancer(CAKI-1) cell line; format: functional; settings: Homo sapiens
NCI-H322M = assay: inhibition of the growth of non-small-cell lung cancer (NCI-H322M) cell line; format: functional; settings: Homo sapiens
UO-31 [16] = assay: inhibition of the growth of renal cancer(UO-31) cell line; format: functional; settings: Homo sapiens
IGROV-1 [17] = assay: inhibition of the growth of ovarian cancer(IGROVI) cell line; format: functional; settings: Homo sapiens
IGROV-1 [18] = assay: Inhibition of the growth of ovarian cancer(IGROVI) cell line at 0.01 uM; format: functional; settings: Homo sapiens
SF-295 [19] = assay: Inhibition of the growth of CNS cancer(SF-295) cell line at 0.01 uM; format: functional; settings: Homo sapiens
MDA-MB-435 [20] = assay: Inhibition of the growth of breast cancer (MDA-MB-435) cell line at 0.01 uM; format: functional; settings: Homo sapiens
NCI/ADR-RES [21] = assay: Inhibition of the growth of breast cancer (MCF7/ADR-RES) cell line at 0.01 uM; format: functional; settings: Homo sapiens
HCT-15 [22] = assay: Inhibition of the growth of colon cancer(HCT-15) cell line at 0.01 uM; format: functional; settings: Homo sapiens
NCI-H460 [23] = assay: Inhibition of the growth of non-small-cell lung cancer (NCI-H460) cell line at 0.01 uM; format: functional; settings: Homo sapiens
A549 [24] = assay: Inhibition of the growth of non-small-cell lung cancer (A549/ATCC) cell line at 0.01 uM; format: functional; settings: Homo sapiens
HCT-116 [25] = assay: Inhibition of the growth of colon cancer(HCT116) cell line at 0.01 uM; format: functional; settings: Homo sapiens
OVCAR-8 [26] = assay: Inhibition of the growth of ovarian cancer(OVCAR-8) cell line at 0.01 uM; format: functional; settings: Homo sapiens
SK-MEL-5 [27] = assay: Inhibition of the growth of melanoma cancer (SK-MEL-5) cell line at 0.01 uM; format: functional; settings: Homo sapiens
MDA-N [28] = assay: Inhibition of the growth of breast cancer(MDA-N) cell line at 0.01 uM; format: functional; settings: Homo sapiens
RPMI-8226 [29] = assay: Inhibition of the growth of leukemia (RPMI-8226) cell line at 0.01 uM; format: functional; settings: Homo sapiens

SMILES: CN(c1ccc2nc(N)nc(N)c2n1)c1cccc2ccccc12
- IC50 [1]: 2100 nM
- IC50 (Dihydrofolate reductase [2]): 3300 nM

SMILES: COc1ccc(Nc2ccc3nc(N)nc(N)c3n2)cc1OC
- IC50 (Dihydrofolate reductase [3]): 40400 nM
- IC50 [1]: 680 nM
- IC50 (Dihydrofolate reductase [2]): 1100 nM

SMILES: COc1ccc(Nc2ccc3nc(N)nc(N)c3n2)cc1
- IC50 (Dihydrofolate reductase [3]): 90400 nM
- IC50 [1]: 2800 nM
- IC50 (Dihydrofolate reductase [2]): 3800 nM

SMILES: COc1ccc(OC)c(Nc2ccc3nc(N)nc(N)c3n2)c1
- IC50 [1]: 730 nM
- IC50 (Dihydrofolate reductase [2]): 3600 nM

Molecules with a lower IC50 (Dihydrofolate reductase [2]), results first:

- IC50 (Dihydrofolate reductase [2]): 260 nM
SMILES: COc1ccccc1Nc1ccc2nc(N)nc(N)c2n1
- IC50 [1]: 460 nM

- IC50 (Dihydrofolate reductase [3]): 8300 nM
- GI50 (MOLT-4): 2180 nM
- GI50 (NCI-H460 [7]): 430 nM
- GI50 (OVCAR-8 [8]): 990 nM
- GI50 (MDA-MB-435 [9]): 570 nM
- GI50 (RPMI-8226 [10]): 670 nM
- GI50 (786-0): 890 nM
- GI50 (NCI-H522): 4260 nM
- GI50 (MCF7): 6450 nM
- GI50 (HCT-116 [11]): 510 nM
- GI50 (NCI-H23): 3670 nM
- GI50 (A549 [12]): 640 nM
- GI50 (SK-MEL-5 [14]): 830 nM
- GI50 (DU-145): 4990 nM
- GI50 (HCT-15 [15]): 850 nM
- GI50 (NCI-H322M): 8020 nM
- IC50 (Dihydrofolate reductase [2]): 430 nM
SMILES: Nc1nc(N)c2nc(Nc3ccccc3)ccc2n1
- GI50 (SF-295 [4]): 1430 nM
- GI50 (SR): 2910 nM
- GI50 (SF-539): 2950 nM
- GI50 (SF-268): 6050 nM
- GI50 (M14): 1070 nM
- GI50 (NCI/ADR-RES [5]): 2690 nM
- inhibition at 0.01 µM (UO-31 [6]): 57%
- IC50 [1]: 300 nM
- GI50 (SNB-19): 1570 nM
- GI50 (KM12): 5940 nM
- GI50 (MDA-N [13]): 680 nM
- GI50 (CAKI-1): 3580 nM
- GI50 (UO-31 [16]): < 10 nM
- GI50 (IGROV-1 [17]): 3270 nM

- IC50 (Dihydrofolate reductase [3]): 700 nM
- IC50 (Dihydrofolate reductase [2]): 75 nM
SMILES: COc1ccc(Sc2ccc3nc(N)nc(N)c3n2)cc1
- IC50 [1]: 45 nM

- IC50 (Dihydrofolate reductase [2]): 820 nM
SMILES: Nc1nc(N)c2nc(Nc3ccc(Cl)cc3)ccc2n1
- IC50 [1]: 830 nM

- IC50 (Dihydrofolate reductase [3]): 99.5 nM
- GI50 (MOLT-4): 60 nM
- GI50 (NCI-H460 [7]): < 10 nM
- GI50 (OVCAR-8 [8]): < 10 nM
- GI50 (MDA-MB-435 [9]): < 10 nM
- GI50 (RPMI-8226 [10]): < 10 nM
- GI50 (786-0): 220 nM
- GI50 (NCI-H522): 60 nM
- GI50 (MCF7): 140 nM
- GI50 (HCT-116 [11]): < 10 nM
- GI50 (NCI-H23): 30 nM
- GI50 (A549 [12]): < 10 nM
- GI50 (SK-MEL-5 [14]): < 10 nM
- GI50 (DU-145): 120 nM
- GI50 (HCT-15 [15]): < 10 nM
- GI50 (NCI-H322M): 70 nM
- IC50 (Dihydrofolate reductase [2]): 1.3 nM
SMILES: CN(c1ccccc1)c1ccc2nc(N)nc(N)c2n1
- GI50 (SF-295 [4]): < 10 nM
- GI50 (SR): 50 nM
- GI50 (SF-539): < 10 nM
- inhibition at 0.01 µM (IGROV-1 [18]): 53%
- inhibition at 0.01 µM (SF-295 [19]): 59%
- GI50 (SF-268): 10 nM
- inhibition at 0.01 µM (MDA-MB-435 [20]): 73%
- inhibition at 0.01 µM (NCI/ADR-RES [21]): 83%
- inhibition at 0.01 µM (HCT-15 [22]): 66%
- inhibition at 0.01 µM (NCI-H460 [23]): 80%
- GI50 (M14): 10 nM
- GI50 (NCI/ADR-RES [5]): < 10 nM
- inhibition at 0.01 µM (A549 [24]): 65%
- inhibition at 0.01 µM (HCT-116 [25]): 80%
- inhibition at 0.01 µM (OVCAR-8 [26]): 91%
- IC50 [1]: 2.2 nM
- inhibition at 0.01 µM (SK-MEL-5 [27]): 59%
- GI50 (SNB-19): 40 nM
- GI50 (KM12): 190 nM
- inhibition at 0.01 µM (MDA-N [28]): 68%
- GI50 (MDA-N [13]): < 10 nM
- GI50 (CAKI-1): 10 nM
- inhibition at 0.01 µM (RPMI-8226 [29]): 59%
- GI50 (UO-31 [16]): 30 nM
- GI50 (IGROV-1 [17]): < 10 nM
